Measurements published in publication PMC3483286, “Functional characterization and evolution of PTH/PTHrP receptors: insights from the chicken” (BMC Evolutionary Biology, 2012).
Entries after “also recorded” stand apart in the source; their conditions may differ. Where a SMILES comes first, the peptide text is derived from it.

Columns and labels:
[1] = biological target: T1, chicken PTH1R (Gallus gallus, UniProt C7S302); assay: intracellular Ca^2+ accumulation in HEK293 cells transfected with chicken PTH1R (Fluo-4 NW); format: cell-based; conditions: HEK293, Fluo-4 NW; peptide 1 μM and 100 nM screen, decreasing concentrations
Protocol: (§1) HEK293 cells were maintained in complete Dulbecco’s modified Eagle’s medium (DMEM, Sigma, Spain) with 4.5 g/L glucose, 110 mg/L sodium pyruvate and L-glutamine supplemented with 10% sterile foetal bovine serum and 0.1% penicillin: streptomycin antibiotic mixture (10.000 U:10 mg/ml, Sigma) in a humid 5% CO2 incubator (Sanyo) at 37°C. On the day prior to transfection, 2–3 x10^5 cells were seeded on 6 well-plates (Starsted, Portugal). Linearized constructs (1 μg) and Fugene 6 (Roche, Germany) cell transfection reagent were used to transfect cells according to the manufactures protocol. […] Cell recovery was monitored daily by constant changes of antibiotic selective medium and the success of gene integration and expression was confirmed by RT-PCR with receptor specific primers.
(§2) Intracellular Ca^2+ (iCa^2+) release was measured using the Ca^2+ sensitive fluorescent dye Fluo-4 NW (Molecular Probes, Invitrogen) according to manufacturer’s instructions. […] Incubations were carried out with 100 μl of the different peptides concentrations (from 1 μM to 100 nM) and cell fluorescence was measured every 10 sec over 2 minutes after addition of reagent using a Synergy4 (Biotek, USA) plate reader. Carbachol (100 nM; Sigma, Spain) was used as a positive control for the assay and the background signal was determined by measuring fluorescence in wells containing non-transfected cells. […]

[2] = biological target: T2, chicken PTH3R (Gallus gallus, UniProt G8YY06); assay: cAMP accumulation in HEK293 cells stably transfected with chicken PTH3R (radioimmunoassay); format: cell-based; conditions: for stimulation of PTH3R cAMP accumulation, comparison in words: chicken 1–34 peptides, 0.1 nM to 100 nM; for Emax (maximal cAMP production, PTH3R): mean ± SEM, 3 experiments in triplicate, above basal levels, * (PTH-L) p < 0.05 compared to other peptides
T2 sequence (G8YY06 1-530): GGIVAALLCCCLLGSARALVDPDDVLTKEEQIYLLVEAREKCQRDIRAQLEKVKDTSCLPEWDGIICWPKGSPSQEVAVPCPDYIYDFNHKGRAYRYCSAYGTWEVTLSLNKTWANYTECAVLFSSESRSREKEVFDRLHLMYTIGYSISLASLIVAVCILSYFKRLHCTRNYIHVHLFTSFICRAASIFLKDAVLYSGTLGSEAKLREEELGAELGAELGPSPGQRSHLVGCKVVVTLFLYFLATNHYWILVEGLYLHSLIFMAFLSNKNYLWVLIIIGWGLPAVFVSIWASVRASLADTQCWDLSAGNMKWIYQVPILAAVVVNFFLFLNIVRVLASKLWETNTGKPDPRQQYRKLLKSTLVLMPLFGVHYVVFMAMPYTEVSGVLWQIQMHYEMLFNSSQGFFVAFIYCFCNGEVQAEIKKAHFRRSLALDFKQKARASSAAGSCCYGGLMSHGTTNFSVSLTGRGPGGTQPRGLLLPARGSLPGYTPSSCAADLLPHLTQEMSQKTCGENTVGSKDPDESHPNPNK
Protocol: (§3) HEK293 cells were maintained in complete Dulbecco’s modified Eagle’s medium (DMEM, Sigma, Spain) with 4.5 g/L glucose, 110 mg/L sodium pyruvate and L-glutamine supplemented with 10% sterile foetal bovine serum and 0.1% penicillin: streptomycin antibiotic mixture (10.000 U:10 mg/ml, Sigma) in a humid 5% CO2 incubator (Sanyo) at 37°C. On the day prior to transfection, 2–3 x10^5 cells were seeded on 6 well-plates (Starsted, Portugal). Linearized constructs (1 μg) and Fugene 6 (Roche, Germany) cell transfection reagent were used to transfect cells according to the manufactures protocol. The transfection complex was incubated for 40 min at room temperature before adding to the cells which were left to grown for 72 hours with daily changes of complete medium. Selection of the stably transfected clones was performed with complete medium supplemented with 800 μg/ml of Geneticin (G418 sulphate, GibcoBRL) and 250 μg/ml sterile filtered 1:100 amphotericin B solution (Sigma, Spain). Cell recovery was monitored daily by constant changes of antibiotic selective medium and the success of gene integration and expression was confirmed by RT-PCR with receptor specific primers.
(§4) The capacity of chicken (1–34) PTH-family peptides to activate the stably transfected PTH1R and PTH3R cell lines was analysed by measuring intracellular cAMP production. Cell line bearing chicken receptors PTH1R and PTH3R were assayed in triplicate in the same assay in 96 well plates (Starstedt). Three independent experiments were performed. Cells were incubated at 37°C in a CO2 incubator and two days prior to the experiments, 2–3 x 10^5 cells were plated and peptide assays were carried out by adding to the recombinant cells decreasing concentrations of test peptide: 100 nM to 0.1 nM of chicken PTH(1–34), PTHrP(1–34) and PTH-L(1–34) or 100 nM of human PTH(1–34) and human TIP39 (Sigma, Spain). Prior to peptide addition, cells were incubated for 40 min with 1 mM 3-isobutyl-1-methylxantine (IBMX, Sigma), which was replaced with fresh medium containing the test peptide in the presence of 1 mM IBMX for a further 40 min. Forskolin (10 μM, Sigma) was used as positive control. Negative control assays were carried out using non-transfected cells in the presence or absence of 100 nM of each peptide. At the end of the assays, cells were washed, ressuspended in 100 μl of 1 x PBS/0.5 M EDTA and immediately frozen at −80°C to promote cell lysis for later quantification of intracellular cAMP production.
(§5) For quantification of intracellular cAMP, cells were lysed using 3 consecutive thaw (42°C)/freeze (−80°C) cycles and the supernatant and cell debris were sonicated for 20 sec on ice. Cells were boiled at 100°C for 10 min to denature proteins and the supernatant was collected after centrifugation for 10 min at 4°C and 19000 g. cAMP was quantified in duplicate by radioimmunoassay using the TRK432 kit (GE Healthcare, UK) following the manufacturer's instructions.
(§6) The results are presented as the mean ± SEM of three independent experiments carried out in triplicate for cAMP experiments and two independent experiments carried out in quadruplicate for Ca^2+ experiments. Data was plotted as the output of cAMP or Ca^2+ at different peptide concentrations for each PTHR using SigmaPlot 9 (Systat, Inc., San Jose, CA). EC50 and confidence limits were calculated using a sigmoidal curve fitting feature within the Single Ligand Binding routine of the Pharmacology module of Sigmaplot. […] To improve curve fitting the maximum empirical stimulation achieved for each receptor was assumed to be at 100 nM for all assays and the curve fitted accordingly.

[3] = biological target: T1, chicken PTH1R; assay: cAMP accumulation in HEK293 cells stably transfected with chicken PTH1R (radioimmunoassay); format: cell-based; conditions: for Emax (maximal cAMP production, PTH1R): mean ± SEM, 3 experiments in triplicate, above basal levels, * (PTHrP) p < 0.05 compared to other peptides; for accumulation of cAMP with PTH1R, human peptide, in words: human peptides at 10 nM and 100 nM, single experiment in triplicate
Protocol: as §3, §4, §5, §6

[4] = system: Zebrafish PTH1R; conditions: N-terminal peptides; ref [8],[10]; cited from earlier work
Description: Chicken PTHRs are activated by PTH-family peptides in a dose-dependent manner. […] Mammalian PTH1R is activated by both PTH and PTHrP which have similar potency and stimulate both cAMP and iCa^2+ production.

[5] = biological target: T2, chicken PTH3R; assay: intracellular Ca^2+ accumulation in HEK293 cells transfected with chicken PTH3R (Fluo-4 NW); format: cell-based; conditions: HEK293, Fluo-4 NW; 1 μM and 100 nM of each peptide
Protocol: as §1, §2

T1 sequence (C7S302 1-538): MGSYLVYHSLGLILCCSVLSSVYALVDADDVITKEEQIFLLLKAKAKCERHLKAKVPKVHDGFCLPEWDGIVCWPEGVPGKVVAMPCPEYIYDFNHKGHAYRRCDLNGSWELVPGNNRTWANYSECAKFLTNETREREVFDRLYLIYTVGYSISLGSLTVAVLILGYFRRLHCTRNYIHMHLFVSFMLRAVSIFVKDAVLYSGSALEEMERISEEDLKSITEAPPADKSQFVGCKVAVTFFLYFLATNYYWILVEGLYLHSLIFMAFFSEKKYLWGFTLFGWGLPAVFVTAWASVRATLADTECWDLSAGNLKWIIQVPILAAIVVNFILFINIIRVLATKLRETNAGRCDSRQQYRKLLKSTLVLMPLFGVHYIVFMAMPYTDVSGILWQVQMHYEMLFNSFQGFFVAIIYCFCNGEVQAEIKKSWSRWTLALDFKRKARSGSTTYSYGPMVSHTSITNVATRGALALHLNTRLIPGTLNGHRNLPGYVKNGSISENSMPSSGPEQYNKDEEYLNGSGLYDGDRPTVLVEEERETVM

| Emax (maximal cAMP production, PTH3R) [2] [pmol/well] | Emax (maximal cAMP production, PTH1R) [3] | cAMP accumulation, human peptide on chicken PTH1R ([3]; 10^-7 M, mean ± SEM of a single experiment carried out in triplicate (Additional file 4)) [pmol/well] | release of intracellular Ca^2+ on PTH3R activation, in words [5] | Compound | intracellular Ca^2+ accumulation with PTH1R, in words [1] | stimulation of PTH3R cAMP accumulation, comparison in words [2] | activation of zebrafish PTH1R, in words [4] | accumulation of cAMP with PTH1R, human peptide, in words [3] | stimulation of PTH3R cAMP accumulation, comparison in words ([2]; listed as PTHrP(1–34)) | stimulation of PTH1R cAMP accumulation, comparison in words ([3]; chicken 1–34 peptides, 0.1 nM to 100 nM) | cAMP production with PTH3R, human peptide, in words ([2]; human peptides at 10 nM and 100 nM, single experiment in triplicate) |
| --- | --- | --- | --- | --- | --- | --- | --- | --- | --- | --- | --- |
| 144.7 ± 20.02 | 6.03 ± 0.78 pmol/well |  |  | CSCC[C@H](NC(=O)[C@H](CC(C)C)NC(=O)[C@H](CCC(N)=O)NC(=O)[C@H](CCSC)NC(=O)[C@H](CCC(=O)O)NC(=O)[C@H](CO)NC(=O)[C@@H](NC(=O)[C@@H](N)CO)C(C)C)C(=O)N[C@@H](Cc1c[nH]cn1)C(=O)N[C@@H](CC(N)=O)C(=O)N[C@@H](CC(C)C)C(=O)NCC(=O)N[C@@H](CCC(=O)O)C(=O)N[C@@H](Cc1c[nH]cn1)C(=O)N[C@@H](CCCNC(=N)N)C(=O)N[C@@H](Cc1c[nH]cn1)C(=O)N[C@H](C(=O)N[C@H](C(=O)N[C@@H](CCC(=O)O)C(=O)N[C@@H](CCCNC(=N)N)C(=O)N[C@@H](CCC(N)=O)C(=O)N[C@@H](CC(=O)O)C(=O)N[C@@H](Cc1c[nH]c2ccccc12)C(=O)N[C@@H](CC(C)C)C(=O)N[C@@H](CCC(N)=O)C(=O)N[C@@H](CCSC)C(=O)N[C@@H](CCCCN)C(=O)N[C@@H](CC(C)C)C(=O)N[C@@H](CCC(N)=O)C(=O)N[C@@H](CC(=O)O)C(=O)N[C@H](C(=O)N[C@@H](Cc1c[nH]cn1)C(=O)N[C@@H](CO)C(=O)N[C@@H](C)C(=O)O)C(C)C)C(C)C)[C@@H](C)O [PTH] (H-SVSEMQLMHNLGEHRHTVERQDWLQMKLQDVHSA-OH; N-terminus and C-terminus assumed) | had no effect | Stimulation of PTH3R was highest for PTHrP and PTH |  |  |  |  |  |
|  |  | 21.4 ± 10 |  | Human PTH: human PTH(1–34) [reference compound] |  |  | activated similarly | stimulated cAMP production with an apparently similar potency to chicken PTHrP |  |  |  |
| 119.9 ± 11.76 | 17.21 ± 1.84 * pmol/well |  | not PTH3R | CC[C@H](C)[C@H](NC(=O)[C@H](CC(C)C)NC(=O)[C@H](CC(N)=O)NC(=O)[C@H](CCC(N)=O)NC(=O)[C@H](CC(C)C)NC(=O)[C@H](Cc1ccccc1)NC(=O)[C@@H](NC(=O)[C@H](CCCNC(=N)N)NC(=O)[C@H](CCCNC(=N)N)NC(=O)[C@H](CCCNC(=N)N)NC(=O)[C@H](CC(C)C)NC(=O)[C@H](CC(=O)O)NC(=O)[C@H](CCC(N)=O)NC(=O)[C@@H](NC(=O)[C@H](CO)NC(=O)[C@H](CCCCN)NC(=O)CNC(=O)[C@H](CCCCN)NC(=O)[C@H](CC(=O)O)NC(=O)[C@H](Cc1c[nH]cn1)NC(=O)[C@H](CC(C)C)NC(=O)[C@H](CC(C)C)NC(=O)[C@H](CCC(N)=O)NC(=O)[C@H](Cc1c[nH]cn1)NC(=O)[C@H](CCC(=O)O)NC(=O)[C@H](CO)NC(=O)[C@@H](NC(=O)[C@H](C)N)C(C)C)[C@@H](C)CC)[C@@H](C)CC)C(=O)N[C@@H](CCC(=O)O)C(=O)NCC(=O)N[C@H](C(=O)N[C@@H](CC(N)=O)C(=O)N[C@H](C(=O)N[C@@H](C)C(=O)O)[C@@H](C)O)C(C)C [PTHrP] (H-AVSEHQLLHDKGKSIQDLRRRIFLQNLIEGVNTA-OH; N-terminus and C-terminus assumed) | stimulated intracellular Ca^2+ accumulation on activation of PTH1R; also recorded: efficiently stimulated iCa^2+ accumulation with PTH1R | Stimulation of PTH3R was highest for PTHrP and PTH |  |  | had overlapping potency with PTH(1–34) for the latter receptor | produced the highest stimulation of PTH1R (p < 0.05) |  |
|  |  |  |  | Human TIP39: human TIP39 (Sigma, Spain), tuberoinfundibular peptide 39 [reference compound] |  |  |  | failed to induce accumulation of cAMP with PTH1R |  |  | only negligible cAMP production was obtained for PTH3R |
